Results on two compounds are retold here after article PMC4393779 (Journal of neurochemistry, 2015).

Like-named read-outs stand apart in the source and are kept apart here.

Experiment [1] deals with WT + D345N hDAT (co-expressed). The format is binding, human. As to conditions: transiently co-transfected 1:1, WT + D345N, observed.
Experiment [2] deals with T1, D345N hDAT (Homo sapiens, UniProt Q01959, D345N). The experiment is described as follows: [3H]CFT saturation binding, HEK-293 cells transiently transfected with D345N DAT. The note with it: transiently singly transfected.
T1 sequence (Q01959 whole entry D345N): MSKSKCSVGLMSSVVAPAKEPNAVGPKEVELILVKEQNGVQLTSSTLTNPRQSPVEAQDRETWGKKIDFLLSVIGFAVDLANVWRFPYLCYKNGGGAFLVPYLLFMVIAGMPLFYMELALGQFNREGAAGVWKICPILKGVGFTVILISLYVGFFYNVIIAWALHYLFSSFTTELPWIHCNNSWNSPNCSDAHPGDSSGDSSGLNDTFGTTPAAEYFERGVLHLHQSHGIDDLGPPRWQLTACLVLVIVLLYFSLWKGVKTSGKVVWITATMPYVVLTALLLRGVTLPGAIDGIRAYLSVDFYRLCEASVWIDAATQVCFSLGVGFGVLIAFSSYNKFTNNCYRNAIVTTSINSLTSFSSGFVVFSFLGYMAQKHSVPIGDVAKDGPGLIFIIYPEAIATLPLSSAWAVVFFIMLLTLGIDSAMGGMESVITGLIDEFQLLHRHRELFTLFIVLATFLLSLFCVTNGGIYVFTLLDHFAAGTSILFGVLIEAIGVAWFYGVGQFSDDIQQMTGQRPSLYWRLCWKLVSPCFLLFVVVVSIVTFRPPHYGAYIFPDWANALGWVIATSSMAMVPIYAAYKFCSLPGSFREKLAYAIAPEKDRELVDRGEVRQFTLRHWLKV
In experiment [3] the test system is W84L + D345N hDAT (mixed cells). The experiment is classed as binding, human. The note with it: observed upon mixing stable cells in equal volumes.
The test system of experiment [4] is W84L + D345N hDAT (co-expressed). The experiment is classed as binding, human. As to conditions: transiently co-transfected 1:1, W84L + D345N, observed.
Experiment [5] deals with WT + D313N hDAT (co-expressed). The experiment is classed as binding, human. The note with it: transiently co-transfected 1:1, WT + D313N, observed.
Experiment [6] deals with T2, D436N hDAT (Homo sapiens, UniProt Q01959, D436N). The experiment is described as follows: [3H]CFT saturation binding, HEK-293 cells transiently transfected with D436N DAT. As to conditions: transiently singly transfected.
T2 sequence (Q01959 whole entry D436N): as the sequence (Q01959 whole entry D345N) above, with N345D, D436N counted along it
Experiment [7] concerns WT + W84L hDAT (mixed cells). Description: [3H]CFT saturation binding, mixed cells singly stably expressing WT and W84L DAT. The note with it: observed upon mixing stable cells in equal volumes. Also on record: species or system human.
Experiment [8] has as its target T3, WT hDAT (Homo sapiens, UniProt Q01959). Description: [3H]CFT saturation binding, intact HEK-293 cells stably expressing WT DAT. As to conditions: observed, mean ± SE.
For experiment [9], the target named is T4, W84L hDAT (Homo sapiens, UniProt Q01959, W84L).
T4 sequence (Q01959 1-620 W84L): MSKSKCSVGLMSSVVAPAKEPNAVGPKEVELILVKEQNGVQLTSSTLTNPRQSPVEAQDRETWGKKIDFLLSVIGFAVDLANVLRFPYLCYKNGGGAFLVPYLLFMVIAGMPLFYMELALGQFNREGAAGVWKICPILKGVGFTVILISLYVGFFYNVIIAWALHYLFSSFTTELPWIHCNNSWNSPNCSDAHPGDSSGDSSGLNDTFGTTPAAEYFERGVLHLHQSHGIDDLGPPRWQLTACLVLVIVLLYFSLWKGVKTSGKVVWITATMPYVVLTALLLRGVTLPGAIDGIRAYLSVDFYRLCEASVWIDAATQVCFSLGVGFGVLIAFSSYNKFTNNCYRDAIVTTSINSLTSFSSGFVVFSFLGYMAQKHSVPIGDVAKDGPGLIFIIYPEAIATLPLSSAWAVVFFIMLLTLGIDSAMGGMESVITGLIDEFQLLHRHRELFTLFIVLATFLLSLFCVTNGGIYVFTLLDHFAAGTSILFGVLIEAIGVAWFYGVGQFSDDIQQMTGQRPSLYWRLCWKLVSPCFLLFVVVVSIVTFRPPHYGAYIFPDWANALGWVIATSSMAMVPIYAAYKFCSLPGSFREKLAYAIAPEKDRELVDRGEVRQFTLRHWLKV
The note with it: stably expressing cells, observed, mean ± SE.

The target in experiment [10] is T3, WT hDAT. As to conditions: transiently singly transfected, observed, mean ± SE.
Experiment [11] relates to WT + D436N hDAT (co-expressed). The format is binding, human. The note with it: transiently co-transfected 1:1, WT + D436N, observed.
Experiment [12] concerns the target T2, D436N hDAT. Description: [3H]CFT saturation binding, intact HEK-293 cells stably expressing D436N DAT. As to conditions: observed, mean ± SE.
Experiment [13] addresses D313N hDAT (Homo sapiens, UniProt Q01959, D313N). The experiment is described as follows: [3H]CFT saturation binding, HEK-293 cells transiently transfected with D313N DAT. As to conditions: transiently singly transfected.
Experiment [14] has as its system WT + D436N hDAT (mixed cells). The format is binding, human. As to conditions: observed upon mixing stable cells in equal volumes.
In experiment [15] the test system is WT + W84L hDAT (co-expressed). The experiment is classed as binding, human. The note with it: transiently co-transfected 1:1, WT + W84L, observed.
Experiment [16] addresses T1, D345N hDAT. The experiment is described as follows: [3H]CFT saturation binding, intact HEK-293 cells stably expressing D345N DAT. As to conditions: observed, mean ± SE.
Experiment [17] has as its target T4, W84L hDAT. Description: [3H]CFT saturation binding, HEK-293 cells transiently transfected with W84L DAT. As to conditions: transiently singly transfected.
Experiment [18] deals with DAT. The note with it: intact cells; ref Chen et al., 2004b; cited from earlier work.

T3 sequence (Q01959 whole entry): as the sequence (Q01959 whole entry D345N) above, with N345D counted along it
Chain of D313N hDAT (Q01959 whole entry D313N): as the sequence (Q01959 whole entry D345N) above, with D313N, N345D counted along it

For the compound `COC(=O)[C@H]1[C@@H](c2ccc(F)cc2)C[C@@H]2CC[C@H]1N2C` [[^3H]CFT, (−)-2-β-carbomethoxy-3-β-(4-fluorophenyl)tropane], the Kd stood at 48.2 ± 10.3 nM in experiment [1]; 2.01 ± 0.67 nM in experiment [3]; 6.75 ± 3.22 nM in experiment [4]; 6.42 ± 1.1 nM in experiment [5]; 5.33 ± 0.95 nM in [7]; 103 ± 5 nM in [11]. Further, the results for the Kd in experiment [14] and in experiment [15] were 25.9 ± 4 nM and 4.4 ± 0.77 nM, respectively. The Bmax in [2] (set paired with W84L (n=6)) is listed as 0.51 ± 0.12 (6) pmol/mg; in experiment [2] (set paired with WT (n=4)), 0.62 ± 0.10 (4) pmol/mg; in experiment [6], 0.94 ± 0.04 (3) pmol/mg; in [8], 0.55 ± 0.03 (6) pmol/mg; in experiment [9], 0.75 ± 0.16 (8) pmol/mg; in [10], 0.79 ± 0.21 (4) pmol/mg. In addition, the Bmax in experiment [12] is listed as 0.50± 0.08 (4) pmol/mg; in experiment [13], 0.41± 0.03 (4) pmol/mg; in experiment [16] it was 0.57 ± 0.13 (4) pmol/mg; in [17] (set paired with D345N (n=7)), 0.94 ± 0.13 (7) pmol/mg; in [17] (set paired with WT (n=5)) it was 0.82 ± 0.14 (5) pmol/mg.
`C[n+]1ccc(-c2ccccc2)cc1` [MPP^+]: in experiment [18], the “inhibition of intact cell [3H]CFT binding” value is reported as “completely inhibited”.
